Source: ChEMBL document CHEMBL1150522, “Preparation and antifungal activity of fusacandin analogs: C-6 sidechain esters” (1996)
In brackets after ≈: the same amount, converted by molar mass.

Tests used:
Format in all cases: functional
Candida albicans [1] = assay: Minimum inhibitory concentration against Candida albicans (CCH 442) in the presence of serum
Candida albicans [2] = assay: Minimum inhibitory concentration against Candida albicans (ATCC 10231) in the absence of serum.
Candida albicans [3] = assay: Minimum inhibitory concentration against Candida albicans (ATCC 10231) in the presence of serum
Candida albicans [4] = assay: Minimum inhibitory concentration against Candida albicans (ATCC 38247) in the absence of serum.
Candida albicans [5] = assay: Minimum inhibitory concentration against Candida albicans (ATCC 38247) in the presence of serum
Candida albicans [6] = assay: Minimum inhibitory concentration against Candida albicans (ATCC 62376) in the absence of serum.
Candida albicans [7] = assay: Minimum inhibitory concentration against Candida albicans (ATCC 62376) in the presence of serum
Candida albicans [8] = assay: Minimum inhibitory concentration against Candida albicans (CCH 442) in the absence of serum.
Candida albicans [9] = assay: Minimum inhibitory concentration against Candida albicans (579a) in the absence of serum.
Candida albicans [10] = assay: Minimum inhibitory concentration against Candida albicans (579a) in the presence of serum

Row | MIC (Candida albicans [1]) | MIC (Candida albicans [2]) | MIC (Candida albicans [3]) | MIC (Candida albicans [4]) | MIC (Candida albicans [5]) | MIC (Candida albicans [6]) | MIC (Candida albicans [7]) | MIC (Candida albicans [8]) | MIC (Candida albicans [9]) | MIC (Candida albicans [10]) | SMILES
1 | 0.78 µg/mL | 12.5 µg/mL (≈ 11.2 µM) | 0.78 µg/mL | 25 µg/mL (≈ 22.5 µM) | 0.78 µg/mL | 12.5 µg/mL (≈ 11.2 µM) | 0.78 µg/mL | 6.25 µg/mL (≈ 5.62 µM) | 25 µg/mL (≈ 22.5 µM) | 0.78 µg/mL | CCCCC/C=C/C=C/[C@@H](O)C/C=C/C=C/C(=O)O[C@@H]1[C@@H](O)[C@H](c2c(O)cc(O)cc2CO)O[C@H](CO)[C@H]1O[C@@H]1O[C@H](COC(=O)c2ccc(-c3ccc(OCCC)cc3)cc2)[C@H](O)[C@H](O)[C@H]1O[C@@H]1O[C@H](CO)[C@H](O)[C@H](O)[C@H]1O
2 | 6.25 µg/mL | > 100 µg/mL | 12.5 µg/mL | > 100 µg/mL | 6.25 µg/mL | > 100 µg/mL | 12.5 µg/mL | > 100 µg/mL | > 100 µg/mL | 6.25 µg/mL | CCCCC/C=C/C=C/[C@@H](O)C/C=C/C=C/C(=O)O[C@@H]1[C@@H](O)[C@H](c2c(O)cc(O)cc2CO)O[C@H](CO)[C@H]1O[C@@H]1O[C@H](COC(=O)c2ccc(-c3ccc(O)cc3)cc2)[C@H](O)[C@H](O)[C@H]1O[C@@H]1O[C@H](CO)[C@H](O)[C@H](O)[C@H]1O
3 | 1.56 µg/mL | > 100 µg/mL | 1.56 µg/mL | > 100 µg/mL | 1.56 µg/mL | > 100 µg/mL | 3.12 µg/mL | > 100 µg/mL | > 100 µg/mL | 0.78 µg/mL | CCCCC/C=C/C=C/[C@@H](O)C/C=C/C=C/C(=O)O[C@@H]1[C@@H](O)[C@H](c2c(O)cc(O)cc2CO)O[C@H](CO)[C@H]1O[C@@H]1O[C@H](COC(=O)/C=C/C=C/CCCCCC)[C@H](O)[C@H](O)[C@H]1O[C@@H]1O[C@H](CO)[C@H](O)[C@H](O)[C@H]1O
4 | 3.12 µg/mL | 50 µg/mL (≈ 46.8 µM) | 3.12 µg/mL | 50 µg/mL (≈ 46.8 µM) | 3.12 µg/mL | > 100 µg/mL | 3.12 µg/mL | 100 µg/mL (≈ 93.5 µM) | 50 µg/mL (≈ 46.8 µM) | 1.56 µg/mL | CCCCC/C=C/C=C/[C@@H](O)C/C=C/C=C/C(=O)O[C@@H]1[C@@H](O)[C@H](c2c(O)cc(O)cc2CO)O[C@H](CO)[C@H]1O[C@@H]1O[C@H](COC(=O)c2ccc(Oc3ccccc3)cc2)[C@H](O)[C@H](O)[C@H]1O[C@@H]1O[C@H](CO)[C@H](O)[C@H](O)[C@H]1O
5 | 0.78 µg/mL | > 100 µg/mL | 0.2 µg/mL | > 100 µg/mL | 0.39 µg/mL | > 100 µg/mL | 0.39 µg/mL | > 100 µg/mL | > 100 µg/mL | 0.78 µg/mL | CCC(O)/C=C/C=C\C=C\C(=O)OC[C@H]1O[C@@H](O[C@H]2[C@H](OC(=O)/C=C/C=C/C[C@H](O)/C(C)=C/C=C/CCC(C)CC)[C@@H](O)[C@@]3(OCc4cc(O)cc(O)c43)O[C@@H]2CO)[C@H](O)[C@@H](O)[C@H]1O (stereo not given in full)
6 | 6.25 µg/mL | 50 µg/mL (≈ 46.2 µM) | 6.25 µg/mL | 100 µg/mL (≈ 92.3 µM) | 6.25 µg/mL | 50 µg/mL (≈ 46.2 µM) | 1.56 µg/mL | 50 µg/mL (≈ 46.2 µM) | 50 µg/mL (≈ 46.2 µM) | 1.56 µg/mL | CCCCC/C=C/C=C/[C@@H](O)C/C=C/C=C/C(=O)O[C@@H]1[C@@H](O)[C@H](c2c(O)cc(O)cc2CO)O[C@H](CO)[C@H]1O[C@@H]1O[C@H](COC(=O)c2ccc(-c3ccccc3OC)cc2)[C@H](O)[C@H](O)[C@H]1O[C@@H]1O[C@H](CO)[C@H](O)[C@H](O)[C@H]1O
7 | 0.39 µg/mL | 25 µg/mL (≈ 23.8 µM) | 1.56 µg/mL | 25 µg/mL (≈ 23.8 µM) | 0.78 µg/mL | 25 µg/mL (≈ 23.8 µM) | 1.56 µg/mL | 25 µg/mL (≈ 23.8 µM) | 25 µg/mL (≈ 23.8 µM) | 0.39 µg/mL | CCCCC/C=C/C=C/[C@@H](O)C/C=C/C=C/C(=O)O[C@@H]1[C@@H](O)[C@H](c2c(O)cc(O)cc2CO)O[C@H](CO)[C@H]1O[C@@H]1O[C@H](COC(=O)c2ccc3c(c2)-c2ccccc2-3)[C@H](O)[C@H](O)[C@H]1O[C@@H]1O[C@H](CO)[C@H](O)[C@H](O)[C@H]1O
8 | 1.56 µg/mL | 50 µg/mL (≈ 48.7 µM) | 3.12 µg/mL | > 100 µg/mL | 0.78 µg/mL | 25 µg/mL (≈ 24.3 µM) | 3.12 µg/mL | 50 µg/mL (≈ 48.7 µM) | 50 µg/mL (≈ 48.7 µM) | 0.78 µg/mL | CCCCC/C=C/C=C/[C@@H](O)C/C=C/C=C/C(=O)O[C@@H]1[C@@H](O)[C@H](c2c(O)cc(O)cc2CO)O[C@H](CO)[C@H]1O[C@@H]1O[C@H](COC(=O)c2ccc3ccccc3c2)[C@H](O)[C@H](O)[C@H]1O[C@@H]1O[C@H](CO)[C@H](O)[C@H](O)[C@H]1O
9 | 25 µg/mL | 100 µg/mL (≈ 84.7 µM) | 25 µg/mL | > 100 µg/mL | 50 µg/mL | 100 µg/mL (≈ 84.7 µM) | 12.5 µg/mL | 100 µg/mL (≈ 84.7 µM) | 100 µg/mL (≈ 84.7 µM) | 25 µg/mL | CCCCC/C=C/C=C/[C@@H](O)C/C=C/C=C/C(=O)O[C@@H]1[C@@H](O)[C@H](c2c(O)cc(O)cc2CO)O[C@H](CO)[C@H]1O[C@@H]1O[C@H](COC(=O)c2ccc(-c3ccc(OCCCCCCCC)cc3)cc2)[C@H](O)[C@H](O)[C@H]1O[C@@H]1O[C@H](CO)[C@H](O)[C@H](O)[C@H]1O
